Values of other authors as cited in patent publication US7825159B2, “Mixtures of aromatic esters for marking or tagging organic products, marker compositions comprising the same and manufacturing methods thereof” (United Color Manufacturing, Inc., priority 2006, dated 2010).

What was measured:
[1] = with less than 28 wt. % n-octylpyrolidinone co-solvent
[2] = with less than 28 wt. % n-octylpyrolidinone co-solvent, even with vigorous stirring

Precipitation on standing overnight in the freezer [1]: precipitates
Dispersion into diesel fuel [2]: will not disperse
Compound: CCCC(=O)Oc1ccc(C2(c3ccc(OC(=O)CCC)c(C)c3)OC(=O)c3ccccc32)cc1C [Cresolphthalein dibutyrate]
